We go through 3 molecules from US12624038B2, “Molecules and methods related to treatment of uncontrolled cellular proliferation” (ST. JUDE CHILDREN'S RESEARCH HOSPITAL, priority 2019, dated 2026).

Read-outs that look alike come from different tables or passages of the source. A value given as a limit tells only on which side of the number the result lay.

For orientation: EC50 means the midpoint of the concentration-response curve. Broadly, the Kd is the free concentration of one partner at which half of the binding sites on the other are occupied at equilibrium, for simple one-to-one binding.

Data set [1] has as its system MHH-CALL-4. The experiment in a line: Cytotoxicity assay (resazurin, 72 hours) in MHH-CALL-4 cells. Type of data set: cell-based, human. Particulars: for EC50: Homo sapiens.
Data set [2] has as its system JAK-STAT5 signaling pathway. In words: Phosphoflow analysis of JAK-STAT5 signaling in MHH-CALL-4 cells. Type of data set: cell-based, human. Conditions: 1 μM for one hour before stimulation with or without TSLP 25 ng/mL, 30 minutes.
Data set [3] addresses T1, JAK3 (Homo sapiens, UniProt P52333).
T1 sequence (P52333 1-1124): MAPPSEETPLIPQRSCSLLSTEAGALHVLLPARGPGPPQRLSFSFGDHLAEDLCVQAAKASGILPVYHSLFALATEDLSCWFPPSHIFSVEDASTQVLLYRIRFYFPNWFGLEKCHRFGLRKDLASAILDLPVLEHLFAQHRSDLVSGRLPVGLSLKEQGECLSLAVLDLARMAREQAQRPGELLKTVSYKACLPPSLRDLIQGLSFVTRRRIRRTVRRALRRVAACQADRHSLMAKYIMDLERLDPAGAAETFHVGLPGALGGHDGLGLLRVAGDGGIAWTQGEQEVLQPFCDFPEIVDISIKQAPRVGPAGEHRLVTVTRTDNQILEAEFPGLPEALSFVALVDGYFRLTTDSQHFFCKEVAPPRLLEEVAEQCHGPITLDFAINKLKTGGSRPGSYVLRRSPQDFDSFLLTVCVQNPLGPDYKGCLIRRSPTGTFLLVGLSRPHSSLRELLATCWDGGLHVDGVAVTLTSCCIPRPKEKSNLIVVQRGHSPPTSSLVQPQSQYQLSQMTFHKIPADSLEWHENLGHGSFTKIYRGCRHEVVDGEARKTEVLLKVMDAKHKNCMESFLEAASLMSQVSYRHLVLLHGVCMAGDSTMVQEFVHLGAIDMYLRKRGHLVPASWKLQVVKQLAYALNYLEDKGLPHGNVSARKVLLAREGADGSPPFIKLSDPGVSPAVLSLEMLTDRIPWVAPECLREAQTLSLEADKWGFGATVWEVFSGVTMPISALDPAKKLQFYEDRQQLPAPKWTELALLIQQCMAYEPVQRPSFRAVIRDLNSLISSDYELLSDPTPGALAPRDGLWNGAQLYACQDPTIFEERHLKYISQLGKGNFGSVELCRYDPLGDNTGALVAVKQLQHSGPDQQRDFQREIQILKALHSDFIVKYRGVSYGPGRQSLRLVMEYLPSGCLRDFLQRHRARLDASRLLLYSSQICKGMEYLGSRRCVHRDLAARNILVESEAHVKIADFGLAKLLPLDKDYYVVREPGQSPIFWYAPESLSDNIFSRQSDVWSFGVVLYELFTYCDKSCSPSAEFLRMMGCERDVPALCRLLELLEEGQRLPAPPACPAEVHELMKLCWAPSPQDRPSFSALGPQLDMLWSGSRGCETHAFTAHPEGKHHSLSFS
The experiment in a line: KdELECT Kd measurement (KINOMEscan platform), JAK3. It counts as binding. Particulars: read-out: Kd to JAK family kinases, JAK3. Also noted: purchased Eurofins DiscoveRx.

Data set [4] concerns the target TYK2 (Homo sapiens, UniProt P29597). The experiment in a line: KdELECT Kd measurement (KINOMEscan platform), TYK2. Also noted: purchased Eurofins DiscoveRx. Particulars: read-out: Kd to JAK family kinases, TYK2. Type of data set: binding.
Data set [5] deals with T1, JAK3. In words: Target degradation (Western Blot) in MHH-CALL-4 cells, JAK3. It counts as cell-based. Also on record: endogenous in cells; host or cells: MHH-CALL-4. Particulars: 100 nM PROTAC at 24 h. Here is the method: Cells were washed twice with ice-cold PBS and lysed in RIPA lysis buffer (Sigma) freshly supplemented with Halt™ Protease Inhibitor Cocktail (ThermoFisher) for 15 minutes on ice. The cell pellet was removed by centrifugation at 13,000 g at 4° C. for 15 minutes. Protein concentration was measured by BCA assay (Thermo Fisher Scientific). Proteins were denatured in NuPAGE LDS 4× sample buffer supplemented with reducing agents (Invitrogen). Typically, 10-20 μg of total protein was loaded per lane on a 4%-12% NuPAGE Bis-Tris gradient gel (Invitrogen) and analyzed by standard immunoblotting and imaged using Li-COR Odyssey CLx (LI-COR Biotechnology, Lincoln, NE). Primary antibodies used were: JAK1 (Cell Signaling #3332S), JAK2 (#3230S), JAK3 (#8827S), TYK2 (#9312S), GSPT1 (#14980S), CRBN (#71810S), IKZF1 (Santa Cruz Biotechnology, SC-398265) and ACBT (Santa Cruz Biotechnology, SC-47778).
For orientation: Immunoblotting shows a protein as a band on a membrane.

The mark [6] stands for this setting: MHHCALL4, MHH-CALL-4 (Table 1), read-out: EC50.
The mark [7] stands for this setting: MHHCALL4, MHH-CALL-4 (Table 2), read-out: EC50 in MHH-CALL-4.
Where [8] appears, read: MHHCALL4, Table 6, no star, read-out: MHHCALL4 EC50.

Chain of TYK2 (P29597 whole entry): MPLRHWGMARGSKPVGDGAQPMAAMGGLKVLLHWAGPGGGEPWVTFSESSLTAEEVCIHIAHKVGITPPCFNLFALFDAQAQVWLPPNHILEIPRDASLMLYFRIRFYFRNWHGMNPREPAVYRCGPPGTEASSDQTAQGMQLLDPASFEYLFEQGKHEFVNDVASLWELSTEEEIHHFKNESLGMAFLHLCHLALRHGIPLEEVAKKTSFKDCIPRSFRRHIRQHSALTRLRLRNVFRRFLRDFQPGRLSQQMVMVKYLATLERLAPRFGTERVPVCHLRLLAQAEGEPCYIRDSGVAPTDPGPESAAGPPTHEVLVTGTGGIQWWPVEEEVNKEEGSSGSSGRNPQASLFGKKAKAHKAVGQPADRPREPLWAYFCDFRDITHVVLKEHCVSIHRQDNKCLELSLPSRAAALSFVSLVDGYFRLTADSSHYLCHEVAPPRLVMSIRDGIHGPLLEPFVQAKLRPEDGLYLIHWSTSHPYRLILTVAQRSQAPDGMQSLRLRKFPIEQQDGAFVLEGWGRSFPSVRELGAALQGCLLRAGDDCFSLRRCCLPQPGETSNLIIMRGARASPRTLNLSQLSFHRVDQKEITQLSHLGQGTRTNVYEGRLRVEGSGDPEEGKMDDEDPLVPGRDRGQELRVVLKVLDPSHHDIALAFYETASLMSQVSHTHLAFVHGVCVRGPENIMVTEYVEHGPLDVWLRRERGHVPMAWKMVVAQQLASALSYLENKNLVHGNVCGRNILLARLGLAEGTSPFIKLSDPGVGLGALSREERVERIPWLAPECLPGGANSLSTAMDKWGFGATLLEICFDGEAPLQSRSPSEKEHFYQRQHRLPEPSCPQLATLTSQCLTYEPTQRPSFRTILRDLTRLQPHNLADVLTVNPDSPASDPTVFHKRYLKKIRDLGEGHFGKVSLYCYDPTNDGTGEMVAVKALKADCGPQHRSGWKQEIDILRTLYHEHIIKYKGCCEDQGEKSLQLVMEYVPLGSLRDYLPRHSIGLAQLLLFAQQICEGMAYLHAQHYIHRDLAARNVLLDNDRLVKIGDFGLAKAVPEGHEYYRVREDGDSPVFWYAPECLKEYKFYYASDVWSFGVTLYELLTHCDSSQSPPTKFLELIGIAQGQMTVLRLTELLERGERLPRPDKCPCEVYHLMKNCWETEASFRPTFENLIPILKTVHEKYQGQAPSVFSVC

As to `N#CC[C@H](C1CCCC1)n1cc(-c2nc(Nc3ccc(C(=O)NCCCCNc4cccc5c4C(=O)N(C4CCC(=O)NC4=O)C5=O)cc3)nc3[nH]ccc23)cn1` (stereo partly drawn) [Compound 5], the EC50 in data set [1] (setting [6]) is 3.9 nM; in data set [1] (setting [7]), 1.2 nM; in data set [1] (setting [8]) it was 1.2 nM. In data set [2], the “JAK inhibition by phosphoflow cytometry” value is “comparable JAK inhibition”. In addition, the values for the Kd in data set [3] and in data set [4] were 2.9 nM and 1.7 nM, respectively. In data set [5], the “Target Degradation (Western Blot) JAK3” value is listed as 2 (2 = Medium (20-40% degradation at 24 h)).
With `CCS(=O)(=O)N1CC(CC#N)(n2cc(-c3nc(Nc4ccc(C(=O)NCCCCNc5cccc6c5C(=O)N(C5CCC(=O)NC5=O)C6=O)cc4)nc4[nH]ccc34)cn2)C1` (stereo not drawn) [Compound 6], the EC50 in data set [1] (MHHCALL4, read-out: EC50 in MHH-CALL-4) turned out to be 1.86 nM; in data set [1] (MHHCALL4, read-out: MHHCALL4 EC50), 1.86 nM. Also, the “JAK inhibition by phosphoflow cytometry” value in data set [2] is recorded as “comparable JAK inhibition”. In addition, the Kd was 0.35 nM in data set [3] and 0.25 nM in data set [4]. In addition, the “Target Degradation (Western Blot) JAK3” value in data set [5] is 2 (2 = Medium (20-40% degradation at 24 h)).
Regarding `CCCn1cc(-c2nc(Nc3ccc(C(=O)NCCCCNc4cccc5c4C(=O)N(C4CCC(=O)NC4=O)C5=O)cc3)nc3[nH]ccc23)cn1` (stereo not drawn) [Compound 7], in data set [1], the “activity in CRLF2r MHH-CALL-4 cells compared to each of the parent compounds, ruxolitinib and pomalidomide” value was “greater than 70,000 fold”. The “cytotoxicity assay in MHH-CALL-4 cells, comparison” value in data set [1] (FIG. 6B) was “outcompeted Ruxolitinib and pomalidomide”. The EC50 in data set [1] (MHHCALL4, read-out: EC50 in MHH-CALL-4 + lenalidomide (30 μM), co-treatment with lenalidomide 30 μM) was > 57 nM; in data set [1] (setting [6]), 0.2 nM; in data set [1] (setting [7]) it was 0.16 nM; in data set [1] (setting [8]), 0.15 nM. Moreover, the “activity on co-treatment with lenalidomide” value in data set [1] (co-treatment with 30 μM of lenalidomide) is recorded as “abolished”. For the same molecule, in data set [2], the “JAK inhibition by phosphoflow cytometry” value is reported as “comparable JAK inhibition”. The Kd came to 1.4 nM in data set [3] and 0.54 nM in data set [4]. Also, in data set [5], the “Target Degradation (Western Blot) JAK3” value is 3 (3 = Strong (>60% degradation at 24 h)).
